From article PMC10017790 (Nature Communications, 2023)

Legend:
[1] = tested on: CaPPAR; type: biochemical, Capsicum annuum; settings: 2 mM NADPH, 0.1 M Tris-HCl pH 8.0, 1 h
[2] = tested on: T1, PaPPAR; type: biochemical, Petunia axillaris; settings: 2 mM NADPH, 0.1 M Tris-HCl pH 8.0, 1 h
T1 construct: gene PPAR

[3] = molecular target: T2, AbLS (Atropa belladonna, UniProt A0A3B6XRA5); settings: 1 mM tropine and 1 mM phenyllactate infiltrated; AbUGT1 coexpressed; 24 h
T2 construct: gene LS

[4] = molecular target: T3, SlTRI (Solanum lycopersicum, UniProt A0A3Q7IM65); type: biochemical; settings: 200 uM NADPH, 0.1 M potassium phosphate pH 6.4, 30 C
T3 construct: gene LOC101265293; CDS cloned from cDNA into pET28a; recombinant His-tagged, Ni-NTA purified; Leu159 printed
T3 sequence (A0A3Q7IM65 9-272): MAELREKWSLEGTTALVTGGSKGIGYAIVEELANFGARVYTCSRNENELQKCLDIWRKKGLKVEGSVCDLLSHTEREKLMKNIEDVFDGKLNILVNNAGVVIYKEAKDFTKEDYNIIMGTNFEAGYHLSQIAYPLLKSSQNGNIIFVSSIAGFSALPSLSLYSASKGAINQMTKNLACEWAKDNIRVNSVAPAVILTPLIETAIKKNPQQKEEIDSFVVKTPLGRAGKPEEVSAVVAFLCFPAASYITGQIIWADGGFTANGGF

[5] = tested on: O=C(O)C(=O)Cc1ccccc1; experiment: purified protein; settings: 2 mM NADPH, 0.1 M Tris-HCl pH 8.0, 1 h

T2 sequence (A0A3B6XRA5 34-476 limits assumed): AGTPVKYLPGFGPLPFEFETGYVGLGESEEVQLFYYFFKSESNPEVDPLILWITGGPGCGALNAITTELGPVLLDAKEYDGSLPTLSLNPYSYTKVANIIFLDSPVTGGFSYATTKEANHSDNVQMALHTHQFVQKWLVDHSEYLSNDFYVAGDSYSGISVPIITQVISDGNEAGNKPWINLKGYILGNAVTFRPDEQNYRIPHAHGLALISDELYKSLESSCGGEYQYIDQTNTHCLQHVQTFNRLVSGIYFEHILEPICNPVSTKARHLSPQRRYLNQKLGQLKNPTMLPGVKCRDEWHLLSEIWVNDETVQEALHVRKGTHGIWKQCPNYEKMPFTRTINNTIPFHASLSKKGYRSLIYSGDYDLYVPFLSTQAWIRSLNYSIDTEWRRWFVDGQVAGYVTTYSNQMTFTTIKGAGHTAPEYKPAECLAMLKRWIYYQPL

O=C(O)C(=O)Cc1ccccc1 [phenylpyruvic acid]
Km [1]: 3020 ± 485 µM | Km [2]: 2650 ± 374 µM

CN1[C@@H]2CC[C@H]1C[C@@H](O)C2 [tropine]
transient expression in N. benthamiana leaves, littorine by UPLC-MS [3]: we detected littorine in tobacco leaves expressing DsLS and AbLS

CN1[C@@H]2CC[C@H]1CC(=O)C2 [tropinone]
Km [4]: TRI from tomato also showed TRI activity

AbPPAR (Atropa belladonna)
Km [5]: 2085 ± 461.3 µM | kcat [5]: 0.0098 ± 0.00074 s⁻¹

SlPPAR (Solanum lycopersicum)
Km [5]: 1380 ± 130 µM | kcat [5]: 0.03355 ± 0.00253 s⁻¹
